| logP | SMILES |
| --- | --- |
| 2.71 | CCCOc1cncc(Cl)n1 |
| 1.04 | Cc1cncc(Cl)n1 |
| 1.1 | CC(=O)Nc1cncc(Cl)n1 |
| 0.28 | NC(=O)c1cncc(Cl)n1 |
| 0.47 | COC(=O)c1cncc(Cl)n1 |
| 1.16 | Fc1cncc(Cl)n1 |
| 0.95 | Nc1cncc(Cl)n1 |
| 0.79 | N#Cc1cncc(Cl)n1 |
| 2.22 | CCOc1cncc(Cl)n1 |
| 1.53 | Clc1cncc(Cl)n1 |
| 1.95 | CN(C)c1cncc(Cl)n1 |
| 1.65 | COc1cncc(Cl)n1 |
